Results as given in EP0692191A1, “UTILIZATION OF PHENYL COMPOUNDS FOR THE CONTROL OF PHYTOPARASITE NEMATODES” (UNIVERSIDAD DE LA LAGUNA, priority 1993, dated 1995).
Where “and” joins values, the source holds several entries; their conditions need not be identical. Equal values may be shown once. Read-outs that look alike come from different tables or passages of the source. Marks after values point to notes of the source that are not given here.

Assays:
Mäusen = conditions: mouse, in vivo; cited from earlier work
Ratte = conditions: rat, cited from earlier work
[1] = tested on: Globodera rostochinesis und Globodera pallida; experiment: Nematicidal effect: lethal concentrations on second-stage juveniles, 24 h (Example 1); conditions: for LC50: read-out: CL50; for EC100: read-out: CL100
[2] = Acute toxicity in male Albino-Swiss mouse, intraperitoneal (Example 3); type: in vivo, Albino-Swiss Maus; conditions: mouse, in vivo, ip, male Albino-Swiss mouse, intraperitoneal, 24 h, estimated from regression curve; read-out: DL50
From the text: (§1) Man studierte die Toxizität bei einer männlichen ,Albino-Swiss" Maus mittels der intraperitonealen (i.p.) Anwendung variabler Dosen von trans-1,3-Diphenyl-2-propen-1-on bei 10 […] zur Behandlung. Man wertete die Nummer der toten Tiere nach 24 Stunden der Anwendung und berechnete die Gleichung der Regressionskurve, die die Resultate des Experimentes besser beschreibt. Ausgehend von den Regressionsgleichungen schätzte man dieDL50 und DL0 (Dosen des trans-1,3-Diphenyl-2-propen-1-on ohne offensichtlichen Effekt) bei 24 Stunden. Ebenso schätzte man das Potential der Toxizität (pT) (Luckey und Venugopal, 1977. J. Toxicol. & Envirn. Health. 2:633.)
(§2) Das DL50 schätzte man bei 1494 mg/Kg bei 24 Stunden (Figur 4). Ausgehend von diesen Daten deduzierte man das das trans-1,3-Diphenyl-2-propen-1-on eine leicht toxische Substanz ist mit DL50 schwankend zwischen 0,5 und 5 g/kg (Loomis, 1982. Ed acribia. Zaragoza, 33-43). Der letale Effekt null für trans-1,3-Diphenyl-2-propen-1-on bei 24 Stunden war DL0=653,85 mg/kg.
(§3) Das toxische Potential schätzte man auf pT50=2,14.

Albino-Swiss Maus = experiment: as above; type: in vivo
From the text: as §1, §2, §3

Meloidogyne javanica = experiment: Field effect in a banana plantation greenhouse infested with nematodes (1.2); type: in vivo; conditions: 0,05 mmol solution, 3000 l with irrigation water; soil samples three days later
From the text: Man bereitete 3000 Liter einer Lösung von trans-1,3-Diphenyl-2-propen-1-on 0,05 mmol und verwendete diese am Boden mit dem Wasser der Bewässerung in einem Gewächshaus der Bananenanpflanzung, das von dem phytoparasitischen Nematoden Meloidogyne javanica befallen war. Drei Tage später nahm man Proben des Bodens der behandelten Parzelle und stellte fest, das in den Extraktionen von Nematoden mittels der Methode der Zentrifugation auf Zucker (Extraktion von sowohl lebenden und toten Nematoden) lediglich 25% lebende Larven der M. javanica zu finden waren, sodaß die Behandlung mit trans-1,3-Diphenyl-2-propen-1-on eine Näherungsweiseeffektivität von 75% hatte.

M. javanica = experiment: Infestation index of tomato roots (1.3); type: in vivo; conditions: index 0 to 5; tomato plants in soil treated as in experiment 1.2; untreated soil ima=4,33
From the text: Man pflanzte Tomatenpflanzen in einer kommerziell erhältlichen Auswahl, anfällig für M. javanica, um die Pflanzen der Bananenpflanzung, die mit trans-1,3-Diphenyl-2-propen-1-on des Experimentes 1.2 behandelt wurde, wie auch um solche, die nicht behandelt wurden. Der Index des Befalles der Wurzeln der Tomate gab uns eine näherungsweise Vorstellung des Niveaus der Infektion mit Nematoden der Wurzelknoten im Feld (Bridge & Page, 1980. Tropical Pest Management, 26:296-298). Zur Klassifikation der angegriffe der Nematoden auf die Wurzeln der Tomate etablierte man einen Index des Befalles von 0 bis 5. Die Pflanzen, die in dem mit trans-1,3-Diphenyl-2-propen-1-on behandeltem Boden wuchsen, erhielten einen mittleren Befallindex (ima) der deutlich kleiner war (ima=3) als derjenige der Pflanzen, die im Boden ohne Behandlung (ima=4,33) wuchsen.

[3] = tested on: Globodera rostochienensis und Globodera pallida; experiment: Nematostatic effect: inhibition of hatching from cysts (Example 2); type: in vivo; conditions: for activity at 10 µM: im, 360 h, 0,01 mmol, read-out: Bildung von Einschlußkörpern im Verhältnis zur Bekämpfung
From the text: Man realisierte ein Experiment, um den Effekt von trans-1,3-Diphenyl-2-propen-1-on bei der Bildung von Einschlußkörpern der Globodera spp. zu sehen. Man setzte 10 Zysten einer gemischten Population der Spezie Globodera rostochienensis und Globodera pallida in Violen mit 2cc einer Lösung, die 10 mmol ZnSO4 als Induktionsmittel der Bildung von Einschlußkörpern enthielt, und eine variable Konzentration von trans-1,3-Diphenyl-2-propen-1-on (0,05, 0,04, 0,03, 0,01 und 0,005 mmol). Die in den vier Replikatoren und in den Bekämpfungen entwickelten Jungen zählte man periodisch während 15 Tagen. Auf der Basis der Regressionskurve, die die Resultate des Experimentes besser beschreibt, schätzte man, was die Anwesenheit von nur 0,007 mmol von trans-1,3-Diphenyl-2-propen-1-on während 15 Tagen ausreichend war, um die Bildung von Einschlußkörpern auf die Hälfte derjenigen der Bekämpfung zu reduzieren.
Nachfolgend und mit dem Ziel zu sehen, ob die Hinderung der Bildung von Einschlußkörpern irreversibel sei, entfernt man die Zysten, wäscht man mit destilliertem Wasser und setzt sie in neue Violen mit 2cc einer Lösung, die lediglich das Induktionsmittel der Bildung von Einschlußkörpern (10 mmol ZnSO4) enthielt. Man fand heraus, das der Bildung von Einschlußkörpern hindernde Effekt des trans-1,3-Diphenyl-2-propen-1-on bei einer Dosis über 0,03 mmol unumkehrbar ist. Die bei der Dosis von 0,01 mmol auftretende Bildung von Einschlußkörpern war deutlich geringer als die der Bekämpfung (37,28%) in den ersten 15 Tagen und praktisch null ( es entwickelten sich lediglich 4,6% im Verhältnis zur Bekämpfung) nach der Herausnahme des trans-1,3-Diphenyl-2-propen-1-on bei 15 Tagen seit Beginn des Experimentes (Figur 3).

[4] = Brine shrimp assay (Example 4); conditions: in vivo, Artemia salina, read-out: CL50
From the text: Die Analyse der Toxizität einer Substanz auf eine Salzgarnele Artemia salina (Brine shrimp) vermitteln eine angenäherte Vorstellung der biologischen Aktivität eines Produktes und insbesondere seiner Zytotoxizität.
Das Experiment wurde durchgeführt nach der Methode, die durch Mayer et al., 1982, beschrieben wurde ( Planta Med. 45:31-34), wobei das CL50 bei 24 Stunden für die Garnelen berechnet wird. Man benutzte vier Replikatoren, jeweils mit einer der Konzentrationen von trans-1,3-Diphenyl-2-propen-1-on (0,1, 0,01, 0,001 und 0,0001 mmol) und adäquate Bekämpfungen. Das geschätzte CL50 lag bei 0,0247 mmol, Dosen, die annäherungsweise mit denjenigen übereinstimmen, die für die Larven des zweiten Stadiums der Nematoden der Zyste berechnet wurden (CL50=0,033).

[5] = tested on: Vinca major, Adiantum capillus-veneris, Begonia rex, Hedera helix; experiment: Phytotoxicity: development of laboratory plants (5.2); type: in vivo; conditions: 0,05 mmol with irrigation at field capacity, 50 days, 25°C, 80% relative humidity
Method: Die Phytotoxizität der trans-1,3-Diphenyl-2-propen-1-on studierte man im Laboratorium unter Benutzung von Vinca major Pflanzen (8 Pflanzen), Adiantum capillus-veneris (2 Pflanzen), Begonia rex (2 Pflanzen) und Hedera helix (2 Pflanzen), die man an Ort und Stelle zog und in einer Kammer bei 25°C, 80% relativer Luftfeuchtigkeit und 13 Stunden Licht pro Tag kultivierte. Die Hälfte der Pflanzen behandelte man mit einer Dosis von trans-1,3-Diphenyl-2-propen-1-on von 0,05 mmol, das man auf eine Bewässerung mit Feldkapazität anwendete.

[6] = tested on: Musa spp. cv Cavendish ,,Gran enano"; experiment: Phytotoxicity: banana plants (5.2); type: in vivo
From the text: Man studierte gleitherweise die Phytotoxizität von trans-1,3-Diphenyl-2-[…] auf Pflanzen der Bananenpflanzung (Musa spp. cv Cavendish ,Gran enano"). Bananenpflanzungen, die drei Monate alt waren und aus einer Kultivierung in vitro stammten, pflanzte man in Holzkübel von 5 l Kapazität mit einem Substrat von 1:1:1 (Torf:Sand:Kies) und ordnete diese zufällig in einem Gewächshaus an. Für dieses Experiment ordnete man 10 Replikatoren zur Behandlung und 5 zur Bekämpfung an. […]

[7] = tomato, in vivo
[8] = tested on: Kresse (Nasturtium officinale); experiment: Phytotoxicity: germination and elongation of cress seeds (5.1); conditions: for activity at 50 µM / activity at 500 µM: Nasturtium officinale, 168 h
[9] = tested on: Tomate (Lycopersicum esculentum var. marglobe); experiment: Phytotoxicity: germination and elongation of tomato seeds (5.1); conditions: tomato, 0,05 and 0,5 mmol, statement in words
[10] = read-out: TE: Rate der Verlängerung

Compound: CNC(=O)O/N=C/C(C)(C)SC [Aldicarb]
- DL50 (Mäusen): 0,3 mg/Kg

Compound: CNC(=O)Oc1cccc2c1OC(C)(C)C2 [Carbofurano]
- DL50 (Mäusen): 2 mg/kg

Compound: CN1CSC(=S)N(C)C1 [Dazomet]
- DL50 (Mäusen): 180 mg/kg

Compound: CCOP(=O)(NC(C)C)Oc1ccc(SC)c(C)c1 (centres unmarked) [Fenamifos]
- DL50 (Mäusen): 22,7 mg/Kg

Compound: CNC(=O)ON=C(SC)C(=O)N(C)C [Oxamilo]
- DL50 (Mäusen): 2,3 mg/Kg

Compound: CC(=O)C#Cc1ccccc1 [Verbindung 1, 4-Phenyl-3-butin-2-on]
- toxischer Effekt (Ratte; 56 mg/kg intravenous): keinen toxischen Effekt
- LC50 [1]: 3.7 µM and 0.53 µg/mL
- EC100 [1]: < 50 µM and < 7.21 µg/mL

Compound: C=CSc1ccccc1 [Verbindung 2, Phenylvinylsulfid]
- LC50 [1]: 21 µM and 2.86 µg/mL

Compound: O=C/C=C/c1ccccc1 [Verbindung 3, trans-Zimtaldehyd]
- LC50 [1]: 24 µM and 3.17 µg/mL
- EC100 [1]: < 1000 µM and < 132 µg/mL

Compound: C=C[S+]([O-])c1ccccc1 (centres unmarked) [Verbindung 4, Phenylvinylsulfoxid]
- LC50 [1]: 111 µM and 16.9 µg/mL
- EC100 [1]: < 1000 µM and < 152 µg/mL

Compound: CC(=O)/C=C/c1ccccc1 [Verbindung 5, trans-4-Phenyl-3-buten-2-on]
- LD50 (Ratte; intraperitoneal): 1210 mg/kg
- LD50 (Ratte; intravenous): 112 mg/kg
- LC50 [1]: 168 µM and 24.6 µg/mL
- EC100 [1]: < 1000 µM and < 146 µg/mL

Compound: O=C1CCC(c2ccccc2)O1 (centres unmarked) [Verbindung 6, γ-Phenyl-γ-butirolacton]
- LC50 [1]: 282 µM and 45.7 µg/mL
- EC100 [1]: < 1000 µM and < 162 µg/mL

Compound: O=C(Cc1ccccc1)Cc1ccccc1 [Verbindung 7, 1,3-Diphenylaceton]
- LC50 [1]: 961 µM and 202 µg/mL

Compound: O=C(/C=C/c1ccccc1)c1ccccc1 [Verbindung 8, trans-1,3-diphenyl-2-propen-1-on]
- LD50 at 24 h [2]: 1490 mg/kg
- toxisches Potential pT50 (Albino-Swiss Maus; estimated from the mouse i.p. data (Luckey and Venugopal)): 2,14
- DL0 (letaler Effekt null) (Albino-Swiss Maus; male Albino-Swiss mouse, intraperitoneal, 24 h): 653,85 mg/kg
- DL50 (Albino-Swiss Maus; male Albino-Swiss mouse, intraperitoneal, 24 h, estimated from regression curve, 1440 min): 1492*** mg/Kg
- Näherungsweiseeffektivität (Meloidogyne javanica): ~75%
- lebende Larven der M. javanica (Meloidogyne javanica): 25%
- mittlerer Befallindex (ima) (M. javanica): 3
- IC50 ([3]; Globodera pallida, 360 h, 15 days exposure, 10 mmol ZnSO4 as hatching inducer, hatching reduced to half of control, read-out: Bildung von Einschlußkörpern hemmende Dosis 50 (DIE50)): 7 µM
- activity at 10 µM ([3]; Globodera pallida, after removal of the compound at day 15): 4.6%
- activity at 10 µM ([3]; Globodera pallida, first 15 days): 37.3%
- Bildung von Einschlußkörpern ([3]; concentrations of 0,03 mmol and more, 15 days): hörte die Bildung von Einschlußkörpern völlig auf
- Reversibility of the hatching-inhibiting effect ([3]; dose above 0,03 mmol, cysts washed and placed in 10 mmol ZnSO4 only): unumkehrbar
- LC50 at 24 h [4]: 24.7 µM
- Wachstum und allgemeiner Aspekt der Pflanzen [5]: keine Unterschiede im Wachstum oder im allgemeinen Aspekt
- Effekt auf Pflanzen der Bananenpflanzung ([6]; 0,05 and 0,5 mmol with irrigation water, after 3 months, greenhouse pots): keinen Effekt
- Effekt auf Pflanzen der Bananenpflanzung ([6]; after 6 months, treated banana plants in the greenhouse of Example 1.2): Ebensowenig stellt man einen Effekt
- activity at 168 h, 50 µM ([7]; TE: Rate der Verlängerung): 105%
- activity at 168 h, 500 µM ([7]; TE: Rate der Verlängerung): 89.2%
- activity at 168 h, 50 µM ([7]; TG: Rate der Keimung): 103%
- activity at 168 h, 500 µM ([7]; TG: Rate der Keimung): 100%
- activity at 50 µM [8, 10]: 97.9%
- activity at 500 µM [8, 10]: 18.4%
- activity at 50 µM ([8]; read-out: TG: Rate der Keimung): 78.4%
- activity at 500 µM ([8]; read-out: TG: Rate der Keimung): 86.5%
- TE: Rate der Verlängerung ([8]; cress primary root, 0,5 mmol, 7 days, 25°C, percent of control): deutliche Verminderung der primären Wurzel
- TG: Rate der Keimung ([8]; cress, 0,5 mmol, 7 days, 25°C, percent of control): leichte Verminderung der Keimung
- Rate der Keimung [9]: variierte bei der Tomate nicht
- Verlängerungsrate [9]: variierte bei der Tomate nicht signifikant
- LC50 [1]: 33 µM and 6.86 µg/mL
- EC100 [1]: < 50 µM and < 10.4 µg/mL
